Paper PMC12024912, “Druggability Studies of Benzene Sulfonamide Substituted Diarylamide (E3) as a Novel Diuretic” (Biomedicines, 2025)

Key:
mice = assay: Mouse sperm malformation assay; settings: mice; day 35; E3 2000 mg/kg/day oral for 5 days; CP 50 mg/kg i.p.; vs control
Description: Male mice were randomly divided into three groups: control group (0.5% CMC-Na), E3 2000 mg/kg group, and positive group (50 mg/kg cyclophosphamide (CP), administered via intraperitoneal injection). E3 and the control group were administered once daily by intragastric gavage. All mice received treatment for 5 consecutive days. After the initial dosing period, […], the mice were euthanized, and evaluation of sperm parameters was performed as follows:
Caudal epididymides were dissected into fragments in physiological saline and incubated (37 °C, 5% CO2, 10 min). Spermatozoa were isolated through nylon mesh filtration. Semen parameters were quantified using computer-assisted semen analysis (CASA). Eosin-stained smears (20 μL sperm suspension) were analyzed to examine sperm morphology. […] Sperm shape abnormalities, such as banana, headless, without a hook, amorphous, double-tailed, and fat head, were identified and counted. In addition, the testis was reserved for morphological analysis. The spermatogenesis was graded from 1 to 10 using the Johnsen score.

UT-B [1] = molecular target: T1, UT-B (Rattus norvegicus, UniProt P97689); assay: Erythrocyte lysis assay for UT-B inhibition, rat erythrocytes; type: cell-based; settings: erythrocyte lysis model; rat; n = 3, means; read-out: IC50 (μM) Rat
T1 construct: endogenous in cells; host or cells: erythrocytes from male SD rats
T1 sequence (P97689 1-384): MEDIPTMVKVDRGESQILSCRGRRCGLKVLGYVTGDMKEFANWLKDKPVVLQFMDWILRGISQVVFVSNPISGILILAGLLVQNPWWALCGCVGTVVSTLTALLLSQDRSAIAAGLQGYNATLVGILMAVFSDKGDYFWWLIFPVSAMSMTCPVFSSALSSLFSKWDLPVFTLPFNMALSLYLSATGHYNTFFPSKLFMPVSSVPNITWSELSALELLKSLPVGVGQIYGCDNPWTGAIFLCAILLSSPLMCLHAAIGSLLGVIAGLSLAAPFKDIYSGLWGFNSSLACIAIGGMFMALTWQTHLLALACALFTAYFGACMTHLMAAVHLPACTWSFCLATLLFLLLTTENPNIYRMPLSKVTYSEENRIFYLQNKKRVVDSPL
Description: (§1) The erythrocyte lysis assay was modified from a method described previously. Erythrocytes obtained from veins were diluted to a hematocrit value of 2% in hyperosmolar PBS containing 1.25 mol/L urea and 5 mmol/L glucose and incubated at r.t. for 2 h. Then, 99 μL erythrocyte suspension from a reservoir was added to each well of a 96-well round-bottom microplate, then 1 μL of the testing compound (500, 125, 31.25, 7.81, 1.95, 0.488, 0.122, 0.031, 0.0076 μmol/L dissolved in DMSO) was added to erythrocyte suspension and shook it up with microoscillator for 1 min. Following 5 min incubation, 20 μL erythrocyte suspension was transferred into 96-well black microplates preloaded with 180 μL isotonic PBS (10 mM, urea-free). Erythrocyte lysis was monitored at 710 nm optical density (OD710) for 6 min, with lysis rates calculated using control values from the same plate as Equation (1):Lysis (%) = 100 × (Aneg − Atest)/(Aneg − Apos)(1) where Atest is the absorbance value from the test well, Aneg is from a negative no-lysis control well, and Apos is from a positive full-lysis control.

UT-B [2] = molecular target: T2, UT-B (Mus musculus, UniProt Q8VHL0); assay: Erythrocyte lysis assay for UT-B inhibition, mouse erythrocytes; type: cell-based; settings: erythrocyte lysis model; mouse; n = 3, means; read-out: IC50 (μM) Mouse
T2 construct: endogenous in cells; host or cells: erythrocytes from wild-type C57BL/6 mice
T2 sequence (Q8VHL0 1-384): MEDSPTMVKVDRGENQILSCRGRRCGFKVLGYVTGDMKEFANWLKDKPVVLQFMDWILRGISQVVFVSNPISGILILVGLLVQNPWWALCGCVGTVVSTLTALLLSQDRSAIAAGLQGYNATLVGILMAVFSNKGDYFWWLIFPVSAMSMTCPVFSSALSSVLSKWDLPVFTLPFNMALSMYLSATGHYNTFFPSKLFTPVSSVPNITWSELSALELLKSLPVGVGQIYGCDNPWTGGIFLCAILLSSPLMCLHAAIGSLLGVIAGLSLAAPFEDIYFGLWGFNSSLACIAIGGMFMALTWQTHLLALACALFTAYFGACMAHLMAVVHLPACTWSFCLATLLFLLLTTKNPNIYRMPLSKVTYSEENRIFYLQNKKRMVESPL
Description: as §1

[3] = parameters: method as in PMID 35458649; settings: 25a, comparison value; cited from earlier work
[4] = system: rat hyponatremia model caused by SIADH; assay: Rat hyponatremia model caused by SIADH (dDAVP); type: in vivo
Description: The protocol for dDAVP-induced hyponatremia was adapted from a previous study, with tolvaptan chosen as the positive control. Preliminary experiments determined the dose of dDAVP (0.25 ng/h). Under isoflurane anesthesia, a 0.5 μg/mL dDAVP solution was injected subcutaneously using an osmotic minipump (ALZET 2002, Cupertino, CA, USA; 200 μL, low rate of 0.5 μL/h for […]). Rats were housed individually in metabolic cages to collect urine. Before using the pump, they were given 62.5 mL/d 1.0 kcal/mL of liquid food. After pump implantation, the rats received 40 mL of 2.1 kcal/mL of liquid feed daily. The rats were divided into five groups: control group (sham operation), model group (0.5% poloxamer, solvent), 4 mg/kg tolvaptan group, 4 mg/kg E3 group, and 20 mg/kg E3 group. E3 was administered orally every 8 h, while tolvaptan was given intragastrically once daily. At the end of the experiment, the rats were sacrificed.

[5] = SIADH rats, E3 4 or 20 mg/kg every 8 h, tolvaptan 4 mg/kg once daily, vs model rats

Row | SMILES | IC50 (UT-B [1]) [µM] | IC50 (UT-B [2]) [µM] | other results
1 | O=P1(N(CCCl)CCCl)NCCCO1 (stereo not drawn) [cyclophosphamide (CP), cyclophosphamide, reference compound] |  |  | testicular and epididymal indices, sperm motility, abnormal morphology, sperm counts, Johnsen score (mice): caused abnormalities
2 | CCN1CCN(c2ccc(NC(=O)c3ccc(C(C)=O)o3)cc2)CC1 [Compound E1] | 0.32 | 0.86 | 
3 | CC(=O)Nc1ccc(NC(=O)c2ccc(C(C)=O)o2)cc1 [Compound 25a, N-(4-acetamidophenyl)-5-acetylfuran-2-carboxamide] |  |  | half-life [3]: 2.86 h; tmax time [3]: 0.25 h
4 | CC(=O)c1ccc(C(=O)Nc2ccc(NS(=O)(=O)c3ccccc3)c(O)c2)o1 [Compound E6] | 0.05 | 0.18 | 
5 | CC(=O)c1ccc(C(=O)Nc2ccccc2NS(=O)(=O)c2ccccc2)o1 [Compound E4] | 6.46 | > 10 | 
6 | Cc1ccccc1C(=O)Nc1ccc(C(=O)N2CCCC(O)c3cc(Cl)ccc32)c(C)c1 (stereo not drawn) [tolvaptan, reference compound] |  |  | hyponatremia in SIADH rats ([4]; E3 4 or 20 mg/kg orally every 8 h, tolvaptan 4 mg/kg once daily, vs model): significantly alleviated; serum osmolality [4, 5]: significantly increased; serum sodium concentration [4, 5]: significantly increased; blood urea levels ([4]; SIADH rats, between experimental groups before and after treatment): no significant difference; H&E staining of kidney and liver ([4]; SIADH rats, except dilatation of collecting ducts): normal tissue structures
7 | CC(=O)c1ccc(C(=O)Nc2ccc(S(=O)(=O)Nc3ccc(OCCN4CCOCC4)cc3)cc2)o1 [Compound E8] | 0.77 | 2.55 | 
8 | CC(=O)c1ccc(C(=O)Nc2ccc(S(=O)(=O)Nc3ccccc3)cc2)o1 [Compound E7] | 0.09 | 0.23 | 
9 | CC(=O)c1ccc(C(=O)Nc2ccc(S(=O)(=O)Nc3ccc(OCCCN4CCOCC4)cc3)cc2)o1 [Compound E9] | 1.75 | 4.07 | 
10 | CC(=O)c1ccc(C(=O)Nc2ccc(C(=O)NCCN(C)C)cc2)o1 [Compound E2] | 0.4 | 2.41 | 
11 | CC(=O)c1ccc(C(=O)Nc2ccc(NS(=O)(=O)c3ccccc3)cc2)o1 [Compound E5] | 0.06 | 0.23 | 
